# According to patent publication US20150218212A1, “FLUORINATED EPOXYKETONE-BASED TETRAPEPTIDE COMPOUNDS AND USES THEREOF AS PROTEASOME INHIBITORS” (FLUORINOV PHARMA INC., priority 2012, published 2015):
# What was measured:
# [1] = target: T1, proteasome Caspase-like (C-L) activity (Mus musculus, UniProt P70195+Q60692); test: Pharmacodynamic proteasome activity in murine red blood cells, C-L; format: in vivo, NOD/SCID mice; conditions: iv, mice, 2 mg/kg i.v., time 0, read-out: Caspase-like (C-L) mean residual activity relative to vehicle treated controls
# T1 construct: RBCs were lysed with assay lysis buffer and incubated on ice for 30 minutes; from tissue; host or cells: red blood cells of NOD/SCID mice
# Protocol: Cells were harvested by centrifugation at 1,200 rpm at room temperature. Cell pellets were washed with PBS (phosphate buffered saline) and lysed with assay lysis buffer (50 mM HEPES (N-2-hydroxyethylpiperazine-N′-2-ethanesulfonic acid), pH 7.5; 150 mM NaCl; 1% Triton X-100; 2 mM ATP). Cell lysates were incubated on ice for 30 minutes, mixed by vortex every 5 minutes, and then centrifuged at 12,000 g for 10 minutes. The supernatant was transferred to a 96-well plate. For each assay, 10 μg of total protein were incubated for 1 hour at 37° C. with increasing concentrations (1 nM to 10 μM) of test compound diluted in assay buffer (50 mM tris-HCl (tris(hydroxymethyl)aminomethane-HCl), pH 7.5; 150 mM NaCl). DMSO alone was used as a control in every assay plate. After incubation, a specific fluorogenic proteasome substrate was added to each assay reaction at a final concentration of 40 μM in a total volume of 100 μL. N-Succinyl-Leu-Leu-Val-Tyr-7-amino-4-methylcoumarin (Suc-Leu-Leu-Val-Tyr-AMC) was used for measuring chymotrypsin-like (CT-L) activity, t-butoxycarbonyl-Leu-Arg-Arg-7-amino-4-methylcoumarin (Boc-Leu-Arg-Arg-AMC) for trypsin-like (T-L) activity, and benzyloxycarbonyl-L-leucyl-L-leucyl-L-glutamyl-7-amino-4-methylcoumarin (Z-Leu-Leu-Glu-AMC) for caspase-like (C-L) activity. The excitation wavelength was set at 360 nm and the fluorescence emission wavelength of AMC was detected at 460 nm. The fluorescence of free AMC released during the enzymatic reaction was measured with a SpectraMax M5 fluorescent spectrophotometric plate reader (Molecular Devices, Sunnyvale, Calif.). AMC release rate was measured at 37° C. in a kinetic mode, recording every 5 minutes for 30 minutes. Experiments were performed in triplicate and repeated at least twice.
# All mouse experiments were performed in accordance with approval from the Ontario Cancer Institute institutional animal review board. Five- to six-week-old male non-obese diabetic/severe combined immunodeficient (NOD/SCID) mice were grouped randomly (n=3 mice per group). Mice were administered vehicle (5% DMSO, 20% Cremophor) or compounds of Formula I at different doses either intravenously or by oral gavage, and venous blood samples (20-50 μL) were collected from each mouse over 24 hours. Blood samples were mixed with heparin (APP Pharmaceuticals; Schaumburg, Ill.) in 0.5 mL tubes in accordance with the manufacturer's instructions. After centrifugal separation at 3,000 g for 10 minutes, red blood cells (RBCs) in the bottom layer were transferred into a new tube and stored at −70° C. until use. RBCs were lysed with assay lysis buffer and incubated on ice for 30 minutes, mixing by vortex every 5 minutes, and then centrifuged at 12,000 g for 10 minutes. The supernatant was transferred to a 96-well plate and proteasome activity was measured as described above for tumor cell lysates.
# Proteasome subunit activity (Chymotrypsin-like, Trypsin-like, Caspase-like, CT-L, T-L, C-L, respectively) were monitored over the course of 24 hrs following […] administration of representative compounds of Formula I. NOD/SCID mice were treated with compounds of Formula I (2 mg/kg by iv administration) or vehicle control and carfilzomib for up to 24 hours, as described above. Table 9 summarizes the data on pharmacodynamic activity of representative compounds of Formula I following a dose of 2 mg/kg intravenous (i.v) administration to mice. Data are presented as mean residual activity (SEM) relative to vehicle treated controls.
# [2] = system: CAKI-1; test: NCI screening panel, CAKI-1 (Renal Cancer); format: cell-based, human
# Protocol: Representative compounds of Formula I were screened using the National Cancer Institute (NCI) screening panel, which consists of a panel of human tumor cell lines, representing leukemia, melanoma, and cancers of the lung, colon, ovary, breast, prostate and renal system.
# After 24 h, two plates of each cell line are fixed in situ with TCA, to represent a measurement of the cell population for each cell line at the time of drug addition (Tz). Experimental drugs are solubilised in dimethyl sulfoxide at 400-fold the desired final maximum test concentration and stored frozen prior to use. At the time of drug addition, an aliquot of frozen concentrate is thawed and diluted to twice the desired final maximum test concentration with complete medium containing 50 μg/mL gentamicin. Additional four, 10-fold or ½ log serial dilutions are made to provide a total of five drug concentrations plus control. Aliquots of 100 μl of these different drug dilutions are added to the appropriate microtiter wells already containing 100 μl of medium, resulting in the required final drug concentrations.
# Following drug addition, the plates are incubated for an additional 48 h at 37° C., 5% CO2, 95% air, and 100% relative humidity. For adherent cells, the assay is terminated by the addition of cold TCA (trichloroacetic acid). Cells are fixed in situ by the gentle addition of 50 μl of cold 50% (w/v) TCA (final concentration, 10% TCA) and incubated for 60 minutes at 4° C. The supernatant is discarded, and the plates are washed five times with tap water and air dried. Sulforhodamine B (SRB) solution (100 μl) at 0.4% (w/v) in 1% acetic acid is added to each well, and plates are incubated for 10 minutes at room temperature. After staining, unbound dye is removed by washing five times with 1% acetic acid and the plates are air dried. Bound stain is subsequently solubilised with 10 mM trizma base, and the absorbance is read on an automated plate reader at a wavelength of 515 nm. For suspension cells, the methodology is the same except that the assay is terminated by fixing settled cells at the bottom of the wells by gently adding 50 μl of 80% TCA (final concentration, 16% TCA). Using the seven absorbance measurements [time zero, (Tz), control growth, (C), and test growth in the presence of drug at the five concentration levels (Ti)], the percentage growth is calculated at each of the drug concentrations levels. Percentage growth inhibition is calculated as: [(Ti−Tz)/(C−Tz)]×100 for concentrations for which Ti>/=Tz and [(Ti−Tz)/Tz]×100 for concentrations for which Ti<Tz.
# Three dose response parameters are calculated for each experimental agent. Growth inhibition of 50% (GI50) is calculated from [(Ti−Tz)/(C−Tz)]×100=50, which is the drug concentration resulting in a 50% reduction in the net protein increase (as measured by SRB staining) in control cells during the drug incubation. The drug concentration resulting in total growth inhibition (TGI) is calculated from Ti=Tz. The LC50 (concentration of drug resulting in a 50% reduction in the measured protein at the end of the drug treatment as compared to that at the beginning) indicating a net loss of cells following treatment is calculated from [(Ti−Tz)/Tz]×100=−50. Values are calculated for each of these three parameters if the level of activity is reached. However, if the effect is not reached or is exceeded, the value for that parameter is expressed as greater or less than the maximum or minimum concentration tested.
Compound,remaining activity at 2 mg/kg [1],Log10GI50 [2],Log10LC50 [2],Log10TGI50 [2]
"CC(C)C[C@H](NC(=O)[C@H](Cc1ccccc1)NC(=O)[C@H](COC(F)F)NC(=O)[C@H](COC(F)F)NC(=O)CN1CCOCC1)C(=O)[C@@]1(C)CO1 [Example 11, (2S)-2-[[(2S)-3-(difluoromethoxy)-2-[[(2S)-3-(difluoromethoxy)-2-[(2-morpholinoacetyl)-amino]propanoyl]amino]propanoyl]amino]-N-[(1S)-3-methyl-1-[(2R)-2-methyloxirane-2-carbonyl]butyl]-3-phenyl-propanamide]",100%,−6.39,>−4.00,−5.55
"CC(C)C[C@H](NC(=O)[C@H](COC(F)F)NC(=O)[C@H](COC(F)F)NC(=O)[C@H](CCc1ccccc1)NC(=O)CN1CCOCC1)C(=O)[C@@]1(C)CO1 [Example 7, (2S)-N-[(1S)-1-(difluoromethoxymethyl)-2-[[(1S)-1-(difluoromethoxymethyl)-2-[[(1S)-3-methyl-1-[(2R)-2-methyloxirane-2-carbo-nyl]butyl]amino]-2-oxo-ethyl]amino]-2-oxo-ethyl]-2-[(2-morpholinoacetyl)amino]-4-phenyl-butanamide]",100%,−6.40,>−4.00,−5.62
"CC(C)C[C@H](NC(=O)[C@H](COC(F)F)NC(=O)CN1CCOCC1)C(=O)N[C@@H](Cc1ccccc1)C(=O)N[C@@H](CC(C)C)C(=O)[C@@]1(C)CO1 [Example 2, (2S)-N-[(1S)-1-benzyl-2-[[(1S)-3-methyl-1-[(2R)-2-methyloxirane-2-carbonyl]butyl]-amino]-2-oxo-ethyl]-2-[[(2S)-3-(difluoromethoxy)-2-[(2-morpholinoacetyl)amino]propanoyl]amino]-4-methyl-pentanamide]",100%,−6.68,>−4.00,−5.93
"CC(C)C[C@H](NC(=O)[C@H](COC(F)F)NC(=O)CN1CCOCC1)C(=O)N[C@@H](Cc1ccccc1)C(=O)N[C@@H](Cc1ccccc1)C(=O)[C@@]1(C)CO1 [Example 3, (2S)-N-[(1S)-1-benzyl-2-[[(1S)-1-benzyl-2-[(2R)-2-methyloxiran-2-yl]-2-oxo-ethyl]amino]-2-oxo-ethyl]-2-[[(2S)-3-(difluoromethoxy)-2-[(2-morpholinoacetyl)-amino]propanoyl]amino]-4-methyl-pentan-amide]",100%,−7.11,−4.92,−6.30
"CC(C)C[C@H](NC(=O)[C@H](COC(F)F)NC(=O)CN1CCOCC1)C(=O)N[C@@H](COC(F)F)C(=O)N[C@@H](Cc1ccccc1)C(=O)[C@@]1(C)CO1 [Example 4, (2S)-N-[(1S)-2-[[(1S)-1-benzyl-2-[(2R)-2-methyloxiran-2-yl]-2-oxo-ethyl]amino]-1-(difluoromethoxymethyl)-2-oxo-ethyl]-2-[[(2S)-3-(difluoromethoxy)-2-[(2-mor-pholinoacetyl)amino]propanoyl]amino]-4 methyl-pentanamide]",100%,−6.20,>−4.00,−5.22
"CC(C)C[C@H](NC(=O)[C@H](COC(F)F)NC(=O)[C@H](COC(F)F)NC(=O)[C@H](COC(F)F)NC(=O)CN1CCOCC1)C(=O)[C@@]1(C)CO1 [Example 17, (2S)-3-(difluoromethoxy)-N-[(1S)-1-(difluoromethoxymethyl)-2-[[(1S)-1-(difluoro-methoxymethyl)-2-[[(1S)-3-methyl-1-[(2R)-2-methyloxirane-2-carbonyl]butyl]amino]-2-oxo-ethyl]amino]-2-oxo-ethyl]-2-[(2-mor-pholinoacetyl)amino]-propanamide]",100%,−5.54,>−4.00,−4.81
"CC(C)C[C@H](NC(=O)[C@H](COC(F)F)NC(=O)CN1CCOCC1)C(=O)N[C@@H](COC(F)F)C(=O)N[C@@H](CC(C)C)C(=O)[C@@]1(C)CO1 [Example 1, (2S)—N-[(1S)-1-(difluoromethoxymethyl)-2-[[(1S)-3-methyl-1-[(2R)-2-methyloxirane-2-carbonyl]butyl]amino]-2-oxo-ethyl]-2-[[(2S)-3-(difluoromethoxy)-2-[(2-morpholinoacetyl)amino]propanoyl]amino]-4-methyl-pentanamide]",100%,−6.29,>−4.00,−5.24
